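Exposure lasted 48 hours, with cells grown in 96-well plates and compounds tested at five concentrations. GI50 marks 50% less growth.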 Active and inactive are the calls of the source. Cut-off read from the data, not from the text of the source: active = GI50 up to about 1.1 µM and inactive = higher.
Experiments:
Experiment in all cases: NCI-60 cell line screen, 48 h
SW-620 = system: SW-620
NCI-H226 = system: NCI-H226
HT-29 = system: HT-29
M14 = system: M14
HOP-62 = system: HOP-62
U-251 = system: U-251
786-0 = system: 786-0
A549 = system: A549
Malme-3M = system: Malme-3M
KM12 = system: KM12
OVCAR-3 = system: OVCAR-3
NCI-H23 = system: NCI-H23
COLO 205 = system: COLO 205

Measured: GI50

O=C(N/C(=C\c1ccc(/C=C(\NC(=O)c2ccccc2)c2nc3ccccc3s2)cc1)c1nc2ccccc2s1)c1ccccc1
inactive: SW-620 3.84 µM | NCI-H226 19.1 µM | HT-29 3.73 µM | M14 3.42 µM | HOP-62 18.4 µM | U-251 2.59 µM | 786-0 1.82 µM | A549 13.5 µM | Malme-3M 11.9 µM | KM12 8.45 µM | OVCAR-3 2.78 µM | NCI-H23 11.6 µM | COLO 205 5.12 µM

CCC(=O)N(O)C(C)(C)C
inactive: SW-620 > 100 µM | NCI-H226 > 100 µM | HT-29 > 100 µM | M14 > 100 µM | HOP-62 > 100 µM | U-251 > 100 µM | 786-0 > 100 µM | A549 > 100 µM | Malme-3M > 100 µM | KM12 > 100 µM | OVCAR-3 > 100 µM | NCI-H23 > 100 µM | COLO 205 > 100 µM

O=C(Nc1ccc(F)cc1)C(=O)C(C1OC(=O)c2ccccc21)[N+](=O)[O-] (stereo unspecified)
inactive: SW-620 > 100 µM | NCI-H226 > 100 µM | HT-29 > 100 µM | M14 > 100 µM | HOP-62 > 100 µM | U-251 > 100 µM | 786-0 > 100 µM | A549 > 100 µM | Malme-3M > 100 µM | KM12 > 100 µM | OVCAR-3 > 100 µM | NCI-H23 > 100 µM | COLO 205 > 100 µM

O=[N+]([O-])c1ccc2nc(/C(=N/Nc3ccccc3)C(O)c3ccco3)c(O)nc2c1 (stereo unspecified)
inactive: SW-620 > 100 µM | NCI-H226 15.7 µM | HT-29 > 100 µM | M14 > 100 µM | HOP-62 37.6 µM | U-251 > 100 µM | 786-0 > 100 µM | A549 > 100 µM | Malme-3M > 100 µM | KM12 > 100 µM | COLO 205 > 100 µM

Cc1cc(C)c(S(=O)(=O)ONC(=O)OC(C)(C)C)c(C)c1
inactive: SW-620 > 100 µM | HT-29 > 100 µM | M14 > 100 µM | HOP-62 > 100 µM | U-251 > 100 µM | 786-0 > 100 µM | A549 > 100 µM | Malme-3M > 100 µM | KM12 > 100 µM | OVCAR-3 > 100 µM | NCI-H23 > 100 µM | COLO 205 > 100 µM

Cc1nc2c(nc1C)C(=O)c1cc(O)ccc1C2=O
inactive: SW-620 61.4 µM | NCI-H226 > 100 µM | HT-29 35.2 µM | M14 > 77.6 µM | HOP-62 69.5 µM | U-251 > 100 µM | 786-0 > 95.5 µM | A549 77.6 µM | Malme-3M 20.5 µM | KM12 > 100 µM | OVCAR-3 29.3 µM | NCI-H23 > 100 µM | COLO 205 23.1 µM

CCCC(O)c1ccc2[nH]c3c(C)cc([N+](=O)[O-])c(C)c3c2c1 (stereo unspecified)
inactive: SW-620 99.1 µM | NCI-H226 > 100 µM | HT-29 68.1 µM | M14 > 100 µM | HOP-62 > 100 µM | 786-0 27.4 µM | A549 39.3 µM | Malme-3M > 100 µM | KM12 > 100 µM | OVCAR-3 83.2 µM | NCI-H23 > 100 µM | COLO 205 93.1 µM

O=C1C=CC2(CCC23C=CC(=O)O3)O1 (stereo unspecified)
inactive: SW-620 94.6 µM | NCI-H226 > 100 µM | HT-29 > 100 µM | M14 > 100 µM | HOP-62 > 100 µM | U-251 > 100 µM | 786-0 > 100 µM | A549 > 100 µM | Malme-3M > 100 µM | KM12 > 100 µM | OVCAR-3 > 100 µM | NCI-H23 > 100 µM | COLO 205 > 100 µM

COC(=O)C1(C(=O)OC)CC(=O)c2cc3c(cc2-c2c(cc(OC)c(OC)c2OC)C1)OCO3
inactive: SW-620 > 211 µM | NCI-H226 95.5 µM | HT-29 > 211 µM | HOP-62 > 211 µM | U-251 > 211 µM | 786-0 > 211 µM | A549 > 211 µM | Malme-3M > 211 µM | KM12 71.6 µM | OVCAR-3 98.2 µM | NCI-H23 > 211 µM | COLO 205 183 µM

COC(=O)C1=C(C(=O)OC)C(C(=O)OC)C(C(=O)OC)=C1C(=O)OC
inactive: SW-620 > 100 µM | HT-29 > 100 µM | M14 > 100 µM | HOP-62 > 100 µM | U-251 > 100 µM | 786-0 > 100 µM | A549 > 100 µM | Malme-3M > 100 µM | KM12 > 100 µM | OVCAR-3 > 100 µM | NCI-H23 > 100 µM | COLO 205 > 100 µM

COc1ccccc1NC(=O)C1=C(C)NC(C)=C(C(=O)Nc2ccccc2OC)C1c1ccc(C)cc1
inactive: SW-620 > 100 µM | NCI-H226 10.5 µM | HT-29 > 100 µM | M14 64.6 µM | HOP-62 > 100 µM | U-251 > 100 µM | 786-0 > 100 µM | Malme-3M > 100 µM | KM12 43 µM | OVCAR-3 > 100 µM | NCI-H23 94.8 µM | COLO 205 12.6 µM

N[C@H](C(=O)O)[C@@H](Cl)CC(=O)O
inactive: SW-620 > 100 µM | NCI-H226 > 100 µM | HT-29 > 100 µM | M14 > 100 µM | HOP-62 > 100 µM | U-251 > 100 µM | 786-0 > 100 µM | A549 > 100 µM | Malme-3M > 100 µM | KM12 > 100 µM | OVCAR-3 > 100 µM | NCI-H23 > 100 µM | COLO 205 > 100 µM

COc1cccc2c1CCc1ccccc1CC2=O
inactive: SW-620 > 100 µM | NCI-H226 > 100 µM | HT-29 > 100 µM | M14 > 100 µM | U-251 > 100 µM | 786-0 > 100 µM | A549 > 100 µM | Malme-3M > 100 µM | KM12 > 100 µM | OVCAR-3 > 100 µM | NCI-H23 > 100 µM | COLO 205 > 100 µM

CCOC(=O)C(CC/C=C\c1ccccc1)N1CCC[C@H]1C(=O)OC (stereo partly specified)
inactive: SW-620 > 100 µM | NCI-H226 > 100 µM | HT-29 > 100 µM | M14 > 100 µM | HOP-62 > 100 µM | U-251 > 100 µM | 786-0 > 100 µM | A549 > 100 µM | Malme-3M > 100 µM | KM12 > 100 µM | OVCAR-3 > 100 µM | NCI-H23 > 100 µM | COLO 205 > 100 µM

C[Si](C)(C)/C=C/CCC(C=O)(CCCl)c1ccccc1 (stereo unspecified)
inactive: SW-620 28.6 µM | HT-29 14.6 µM | M14 28.3 µM | U-251 15.7 µM | 786-0 16.3 µM | A549 23.4 µM | Malme-3M 17.6 µM | KM12 26.7 µM | OVCAR-3 16.7 µM | NCI-H23 21.8 µM | COLO 205 29.2 µM

Nn1c(-c2ccccc2)nc2ccc(Br)cc2c1=O
inactive: SW-620 46.6 µM | NCI-H226 57.5 µM | HT-29 61 µM | M14 54.1 µM | HOP-62 > 10 µM | U-251 41.4 µM | 786-0 47.2 µM | A549 > 100 µM | Malme-3M 15.1 µM | KM12 86.1 µM | OVCAR-3 24 µM | NCI-H23 81.5 µM | COLO 205 32.1 µM

COC1=CC(=O)[C@]2(C)[C@H](C1=O)C(C)[C@H]2c1ccc(OC)cc1 (stereo partly specified)
inactive: SW-620 > 100 µM | NCI-H226 > 100 µM | HT-29 > 100 µM | M14 > 100 µM | HOP-62 > 100 µM | U-251 > 100 µM | 786-0 > 100 µM | A549 > 100 µM | Malme-3M > 100 µM | KM12 > 100 µM | OVCAR-3 > 100 µM | NCI-H23 > 100 µM | COLO 205 > 100 µM

O=C(Oc1ccc2c(-c3ccccc3)c(C(=O)Nc3ccc(Cl)cc3)c(=O)oc2c1)c1ccccc1
inactive: SW-620 > 100 µM | NCI-H226 > 100 µM | HT-29 > 100 µM | M14 > 100 µM | HOP-62 > 100 µM | U-251 > 100 µM | 786-0 > 100 µM | A549 > 100 µM | Malme-3M > 100 µM | KM12 > 100 µM | OVCAR-3 > 100 µM | NCI-H23 > 100 µM | COLO 205 > 100 µM

CC1CC(=O)c2c(ccc3c2C(=O)c2cccc(O)c2C3=O)C1 (stereo unspecified)
inactive: SW-620 4.25 µM | NCI-H226 14.4 µM | HT-29 3.74 µM | M14 1.97 µM | HOP-62 > 10 µM | U-251 11.4 µM | 786-0 7 µM | A549 7.16 µM | Malme-3M 6.93 µM | KM12 12.7 µM | OVCAR-3 3.46 µM | NCI-H23 5.26 µM | COLO 205 5.75 µM

CCCCNC(=S)Nn1c(-c2ccccc2)nc2ccccc2c1=O
inactive: SW-620 > 100 µM | NCI-H226 > 100 µM | HT-29 68.5 µM | M14 > 100 µM | HOP-62 > 100 µM | U-251 > 100 µM | 786-0 > 100 µM | A549 > 100 µM | Malme-3M > 100 µM | KM12 > 100 µM | NCI-H23 > 100 µM | COLO 205 > 100 µM

O=C1C(Cl)C(c2cccc(O)c2)N1n1cnc2ccccc2c1=O (stereo unspecified)
inactive: SW-620 > 100 µM | NCI-H226 21.6 µM | HT-29 > 100 µM | M14 > 100 µM | HOP-62 > 100 µM | U-251 > 100 µM | 786-0 > 100 µM | A549 > 100 µM | Malme-3M > 100 µM | OVCAR-3 > 100 µM | NCI-H23 > 100 µM | COLO 205 > 100 µM

Reference: ChEMBL document CHEMBL1201862, “PubChem BioAssay data set” (2004)
